Results from patent publication US10335398B2 (MAXINASE LIFE SCIENCES LIMITED, priority 2015, dated 2019).
Values belong to the compound of their own block, whether it stands above or below them.

Key:
[1] = Pharmacokinetic study on Bioadhesive Composition in Beagle dogs; settings: for half-life: t1/2, Beagle dogs;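 for all read-outs here: eight Beagle dogs (4 male, 4 female), five-period crossover with 3-day washouts, plasma levels quantified by validated LC-MS/MS, oral dosing after roughly 16 h fast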
Protocol: (§1) Eight Beagle dogs (4 male and 4 female) participated in the study. The study was preceded in five cross-over periods, separated by 3-day washout period. For oral administration, dogs were fasted about 16 hours prior to the dosing but had free access to water. […] Each oral dosing was administered with 20-30 mL of water. […] Blood samples were collected at pre-dose (0 min) and at 5, 10, 15, 30, 45 minutes; and at 1, 2, 3, 4, 6, 8, 12, 24 hours post-dose. After the plasma-separation process, the samples were analyzed by a validated LC-MS/MS method.

in vivo = settings: both, beagle, dog, plasma, 1 mg
Protocol: as §1

[2] = Beagle dogs, analyte 7-OH Granisetron, IV Kytril® IV Infusion 1 mg
[3] = Beagle dogs, analyte 7-OH Granisetron, nasal GNS-B01 0.5 mg
[4] = Beagle dogs, analyte 7-OH Granisetron, nasal GNS-B01 1.0 mg
[5] = Beagle dogs, analyte 7-OH Granisetron, nasal GNS-B01 2 mg
[6] = Beagle dogs, analyte 7-OH Granisetron, oral Kytril® tablet 1 mg

amount of 7-OH Granisetron in plasma after oral dosing compared to intranasal administration ([1]; Beagle dogs): about twice as much
AUC0-last [1, 2]: 1389 ± 465 ng·min/mL
AUC0-∞ [1, 2]: 1419 ± 470 ng·min/mL
CL/F [1, 2]: 0.77 ± 0.25 L/min
Cmax [1, 2]: 4.28 ± 1.20 ng/mL
MRT [1, 2]: 4.95 ± 0.317 h
Tmax [1, 2]: 0.813 ± 0.222 h
t1/2 [1, 2]: 4.6 ± 0.0033 h
AUC0-last [1, 3]: 364 ± 263 ng·min/mL
AUC0-∞ [1, 3]: 386 ± 264 ng·min/mL
CL/F [1, 3]: 2.98 ± 4.01 L/min
MRT [1, 3]: 3.92 ± 0.817 h
Tmax [1, 3]: 1 ± 0.423 h
t1/2 [1, 3]: 3.88 ± 1.2 h
AUC0-last [1, 4]: 664 ± 520 ng·min/mL
AUC0-∞ [1, 4]: 691 ± 520 ng·min/mL
CL/F [1, 4]: 2.70 ± 2.36 L/min
Cmax [1, 4]: 2.18 ± 1.54 ng/mL
MRT [1, 4]: 4.42 ± 0.8 h
Tmax [1, 4]: 1.06 ± 0.395 h
t1/2 [1, 4]: 4.37 ± 0.783 h
AUC0-last [1, 5]: 1549 ± 771 ng·min/mL
AUC0-∞ [1, 5]: 1609 ± 810 ng·min/mL
CL/F [1, 5]: 1.50 ± 0.61 L/min
Cmax [1, 5]: 4.56 ± 2.01 ng/mL
MRT [1, 5]: 5.42 ± 0.35 h
Tmax [1, 5]: 1.09 ± 0.597 h
t1/2 [1, 5]: 5.1 ± 0.55 h
AUC0-last [1, 6]: 1197 ± 446 ng·min/mL
AUC0-∞ [1, 6]: 1246 ± 473 ng·min/mL
CL/F [1, 6]: 0.90 ± 0.32 L/min
Cmax [1, 6]: 5.73 ± 2.17 ng/mL
MRT [1, 6]: 4.5 ± 0.683 h
Tmax [1, 6]: 0.625 ± 0.267 h
t1/2 [1, 6]: 4.58 ± 1.02 h
Cmax ([1]; Beagle dogs, analyte metabolite 7-OH Granisetron, nasal GNS-B01 0.5 mg granisetron): 1.26 ± 0.845 ng/mL
SMILES: CN1[C@@H]2CCC[C@H]1C[C@H](NC(=O)c1nn(C)c3c(O)cccc13)C2 [7-OH Granisetron]

CL/F ([1]; Beagle dogs, analyte Granisetron, nasal GNS-B01 0.5 mg/dog): 4.20 ± 4.35 L/min
CL/F ([1]; Beagle dogs, analyte Granisetron, nasal GNS-B01 1.0 mg/dog): 4.26 ± 3.69 L/min
CL/F ([1]; Beagle dogs, analyte Granisetron, nasal GNS-B01 2 mg/dog): 2.80 ± 2.18 L/min
Tmax ([1]; both, beagle, dog, plasma, inhaled or intranasal, 0.5 mg, Tmax, Beagle dogs, analyte Granisetron, nasal GNS-B01 0.5 mg/dog): 0.448 h
half-life ([1]; both, beagle, dog, plasma, inhaled or intranasal, 0.5 mg, analyte Granisetron, nasal GNS-B01 0.5 mg/dog): 0.997 ± 0.245 h
Tmax ([1]; both, beagle, dog, plasma, inhaled or intranasal, 1 mg, Tmax (range), Beagle dogs, intranasal administration 1.0 mg/dog): 0.25 to 0.75 h
Tmax ([1]; both, beagle, dog, plasma, inhaled or intranasal, 1 mg, Tmax, Beagle dogs, analyte Granisetron, nasal GNS-B01 1.0 mg/dog): 0.438 h
half-life ([1]; both, beagle, dog, plasma, inhaled or intranasal, 1 mg, analyte Granisetron, nasal GNS-B01 1.0 mg/dog): ~1 h
Tmax ([1]; both, beagle, dog, plasma, inhaled or intranasal, 2 mg, Tmax, Beagle dogs, analyte Granisetron, nasal GNS-B01 2 mg/dog): 0.397 h
half-life ([1]; both, beagle, dog, plasma, inhaled or intranasal, 2 mg, analyte Granisetron, nasal GNS-B01 2 mg/dog): 1.3 ± 0.352 h
Tmax ([1]; both, beagle, dog, plasma, po, 1 mg, Tmax (range), Beagle dogs, oral administration 1.0 mg/dog): 0.5 to 1 h
AUC(0-t) (in vivo; iv): 28.4 ng·h/mL
MRT (in vivo; iv): 1.24 h
half-life (in vivo; iv): 1.1 ± 0.178 h
MRT (in vivo; po): 1.5 h
Vd/F (in vivo; po): 531 ± 234 L
half-life (in vivo; po): ~1 h
SMILES: CN1[C@@H]2CCC[C@H]1C[C@@H](NC(=O)c1nn(C)c3ccccc13)C2 [Granisetron, 1-methyl-N-((1R,3r,5S)-9-methyl-9-azabicyclo[3.3.1]nonan-3-yl)-1H-indazole-3-carboxamide, reference compound]
